This note sets out measurements from ChEMBL document CHEMBL4834462, “Naphtho-γ-pyrone Dimers from an Endozoic Aspergillus niger and the Effects of Coisolated Monomers in Combination with Cisplatin on a Cisplatin-Resistant A549 Cell Line” (J Nat Prod, 2021).

Activity calls are given as the source filed them. The rule behind the calls is not given here. Bounds are passed on as bounds.

For test [1], the system named is A549. Briefly: Anticancer activity against cisplatin-resistant human A549 cells assessed as reduction in cell viability measured after 48 hrs in presence of cisplatin by MTT assay. The test is classed as functional, cell-based. The note with it: A549, 48 h.
In test [2] the test system is A549. The experiment in a line: Synergistic antiproliferative activity against cisplatin-resistant human A549 cells assessed as combination index at 15 uM incubated for 48 hrs in presence of 1.5 uM cisplatin by MTT assay. The test is classed as functional.
The subject of test [3] is A549. The experiment in a line: Downregulation of Nrf2 protein expression in cisplatin-resistant human A549 cells at 15 uM incubated for 48 hrs in presence of cisplatin by western blot analysis. The format is functional, cell-based.
The test system of test [4] is A549. Briefly: Synergistic antiproliferative activity against cisplatin-resistant human A549 cells assessed as combination index at 10 uM incubated for 48 hrs in presence of 3 uM cisplatin by MTT assay. The test is classed as functional.
Test [5] has as its system A549. Briefly: Induction of apoptosis in cisplatin-resistant human A549 cells assessed as viable cells at 10 uM incubated for 24 hrs by AnnexinV-FITC/PI staining based flow cytometry (reference value: 86.5%). The test is classed as functional. To be noted: read-out: Activity.
For test [6], the system named is A549. The experiment in a line: Synergistic antiproliferative activity against cisplatin-resistant human A549 cells assessed as combination index at 20 uM incubated for 48 hrs in presence of 3 uM cisplatin by MTT assay. The test is classed as functional.
For test [7], the system named is A549. The experiment in a line: Downregulation of HO-1 protein expression in cisplatin-resistant human A549 cells at 15 uM incubated for 48 hrs in presence of cisplatin by western blot analysis. The test is classed as functional, cell-based.
Test [8] relates to A549. Briefly: Inhibition of redox balance in cisplatin-resistant human A549 cells assessed as reduction in ratio of GSH/GSSG measured after 24 hrs. The format is functional, cell-based. The note with it: dose 10-20 µM.
In test [9] the test system is A549. Briefly: Synergistic antiproliferative activity against cisplatin-resistant human A549 cells assessed as combination index at 15 uM incubated for 48 hrs in presence of 3 uM cisplatin by MTT assay. The format is functional.
Test [10] relates to A549. Briefly: Induction of apoptosis in cisplatin-resistant human A549 cells assessed as viable cells at 20 uM incubated for 24 hrs by AnnexinV-FITC/PI staining based flow cytometry (reference value: 86.5%). The test is classed as functional. To be noted: read-out: Activity.
Test [11] has as its system A549. The experiment in a line: Downregulation of NQO-1 protein expression in cisplatin-resistant human A549 cells at 15 uM incubated for 48 hrs in presence of cisplatin by western blot analysis. The format is functional, cell-based.
In test [12] the test system is A549. The experiment in a line: Synergistic antiproliferative activity against cisplatin-resistant human A549 cells assessed as combination index at 10 uM incubated for 48 hrs in presence of 1.5 uM cisplatin by MTT assay. The format is functional.
The test system of test [13] is A549. The experiment in a line: Induction of apoptosis in cisplatin-resistant human A549 cells assessed as necrotic cells at 10 uM incubated for 24 hrs by AnnexinV-FITC/PI staining based flow cytometry (reference value: 0.53%). The test is classed as functional.
In test [14] the test system is A549. The experiment in a line: Synergistic antiproliferative activity against cisplatin-resistant human A549 cells assessed as combination index at 10 uM incubated for 48 hrs in presence of 4.5 uM cisplatin by MTT assay. The test is classed as functional.
Test [15] deals with A549. The experiment in a line: Downregulation of HO-1 protein expression in cisplatin-resistant human A549 cells at 15 uM incubated for 48 hrs by western blot analysis. The test is classed as functional, cell-based.
Test [16] deals with A549. Briefly: Downregulation of AKT protein expression in cisplatin-resistant human A549 cells at 15 uM incubated for 48 hrs in presence of cisplatin by western blot analysis. The format is functional, cell-based.
Test [17] has as its system A549. Briefly: Induction of apoptosis in cisplatin-resistant human A549 cells assessed as early apoptotic cells at 20 uM incubated for 24 hrs by AnnexinV-FITC/PI staining based flow cytometry (reference value: 2.17%). The test is classed as functional.
Test [18] deals with A549. The experiment in a line: Induction of apoptosis in cisplatin-resistant human A549 cells assessed as late apoptotic cells at 10 uM incubated for 24 hrs by AnnexinV-FITC/PI staining based flow cytometry (reference value: 10.8%). The test is classed as functional.
In test [19] the test system is A549. The experiment in a line: Synergistic antiproliferative activity against cisplatin-resistant human A549 cells assessed as combination index at 20 uM incubated for 48 hrs in presence of 1.5 uM cisplatin by MTT assay. The test is classed as functional.
Test [20] deals with A549. Briefly: Induction of apoptosis in cisplatin-resistant human A549 cells assessed as early apoptotic cells at 10 uM incubated for 24 hrs by AnnexinV-FITC/PI staining based flow cytometry (reference value: 2.17%). The format is functional.
The test system of test [21] is A549. Briefly: Synergistic antiproliferative activity against cisplatin-resistant human A549 cells assessed as combination index at 20 uM incubated for 48 hrs in presence of 4.5 uM cisplatin by MTT assay. The format is functional.
Test [22] deals with A549. Briefly: Induction of apoptosis in cisplatin-resistant human A549 cells assessed as late apoptotic cells at 20 uM incubated for 24 hrs by AnnexinV-FITC/PI staining based flow cytometry (reference value: 10.8%). The test is classed as functional.
Test [23] deals with A549. The experiment in a line: Induction of apoptosis in cisplatin-resistant human A549 cells assessed as necrotic cells at 20 uM incubated for 24 hrs by AnnexinV-FITC/PI staining based flow cytometry (reference value: 0.53%). The test is classed as functional.
The subject of test [24] is A549. Briefly: Synergistic antiproliferative activity against cisplatin-resistant human A549 cells assessed as combination index at 15 uM incubated for 48 hrs in presence of 4.5 uM cisplatin by MTT assay. The format is functional.
The subject of test [25] is A549. Briefly: Induction of intracellular ROS generation in cisplatin-resistant human A549 cells measured after 24 hrs by DCFH-DA staining based laser scanning confocal microscopy. The format is functional, cell-based. The note with it: dose 10-20 µM.

On to `COc1cc(OC)c2c(c1)c(-c1c(OC)cc3cc(O)c4c(=O)cc(C)oc4c3c1OC)c(O)c1c(=O)cc(C)oc12`, for which, in the test on A549 [1], the IC50 was more than 20 µM.

On to `COc1cc(OC)c2c(O)c3c(=O)cc(C)oc3c(-c3c(O)cc4cc(O)c5c(=O)cc(C)oc5c4c3OC)c2c1` [ASPERPYRONE A], for which the IC50 with A549 [1] is more than 20 µM.

Regarding `COc1cc(O)cc2cc3oc(C)cc(=O)c3c(O)c12`, the IC50 with A549 [1] was more than 20 µM.

On to `COc1cc(OC)c2c(O)c3c(=O)cc(C)oc3c(-c3c(O)cc4cc5oc(C)cc(=O)c5c(O)c4c3OC)c2c1`, for which, in the test with A549 [1], the IC50 is more than 20 µM.

With `COc1cc(OC)c2c(O)c3c(c(-c4c(OC)cc5cc(O)c6c(=O)cc(C)oc6c5c4OC)c2c1)O[C@](C)(O)CC3=O`, in the test with A549 [1], the IC50 is more than 20 µM.

With `COc1cc(OC)c2c(O)c3c(=O)cc(C)oc3c(-c3c(OC)cc4cc5oc(C)cc(=O)c5c(O)c4c3OC)c2c1` [AURASPERONE A], the IC50 in the test on A549 [1] is more than 20 µM.

As for `O=C1C=C2O[C@H]3CC(=O)c4c(O)cc(O)cc4C3=C2c2cc(O)cc(O)c21`, in the test with A549 [1], the IC50 was more than 20 µM.

With `COc1cc(OC)c2c(O)c3c(=O)cc(C)oc3c(-c3c(OC)cc4cc(O)c5c(=O)cc(C)oc5c4c3OC)c2c1` [FONSECINONE A], in the test on A549 [1], the IC50 was more than 20 µM.

For the molecule `COc1cc(OC)c2c(c1)c(-c1c(OC)cc3cc4oc(C)cc(=O)c4c(O)c3c1OC)c(O)c1c(=O)cc(C)oc12` [ASPERPYRONE C], the IC50 with A549 [1] is more than 20 µM.

`COc1cc(O)cc2cc(O)c3c(=O)cc(C)oc3c12`: the CI in the test on A549 [2] turned out to be 0.75; in the test on A549 [4], 0.95; in the test with A549 [6] it was 0.76; in the test on A549 [9], 0.72; in the test with A549 [12], 1.95; with A549 [14], 0.83. The figures for the CI in the test on A549 [19], in the test on A549 [21] and in the test on A549 [24] were 0.76, 0.81 and 0.79, respectively. The inhibition result in the test on A549 [3], in the test with A549 [7], with A549 [11], in the test on A549 [15] and with A549 [16] was “Active” each time. Further, the viability at 10 µM in the test on A549 [5] was determined as 72.6%. Moreover, the inhibition result in the test on A549 [8] was “Dose-Dependent Effect”. Further, the viability at 20 µM with A549 [10] was 53.3%. Moreover, the Activity worked out at 0.9% in the test with A549 [13]; 4.05% in the test with A549 [17]; 23.6% in the test with A549 [18]; 2.87% in the test with A549 [20]; 41.3% in the test with A549 [22]; 1.34% in the test with A549 [23]. For the same molecule, the Activity entry with A549 [25] was “Dose-Dependent Effect”. For the same molecule, the IC50 in the test on A549 [1] was more than 20 µM.

Regarding `COc1cc(OC)c2c(O)c3c(=O)cc(C)oc3cc2c1` [RUBROFUSARIN B], the IC50 in the test on A549 [1] was more than 20 µM.

`COc1cc(OC)c2c(c1)c(-c1c(O)cc3cc4oc(C)cc(=O)c4c(O)c3c1OC)c(O)c1c(=O)cc(C)oc12`: the IC50 in the test with A549 [1] was more than 20 µM.
